Assay results published in patent US20080300317A1 (Chevron U.S.A. Inc., priority 2007, published 2008).
Where a name gives a salt, the structure may show the parent alone. Read-outs that look alike come from different tables or passages of the source.

Columns and labels:
[1] = system: 3 strains of influenza A virus and one strain of influenza B virus; format: cell-based; conditions: Vero cells; screening at 50, 10, 5 and 1 μM; all four influenza strains
[2] = system: influenza A/PR/8/34 (H1N1); assay: microbe, parasite or virus in culture; format: cell-based, influenza A virus
influenza A/WS/33 (H1N1) = assay: microbe, parasite or virus in culture; format: cell-based, influenza A virus
[3] = system: influenza A/HK/8/68 (H3N2); assay: microbe, parasite or virus in culture; format: cell-based, influenza A virus
influenza B/GL/1739/54 = assay: Anti-viral EC50 experiment, survival of virus-infected Vero cells; format: cell-based, influenza B virus; conditions: for EC50 Virus B/GL/1739/54: Table 3, Vero cells, n at least 2, No effic. = no efficacy measured; for EC50: Influenza B virus, Vero, Table 4, controls, cutoff control values, determined over only 2 experiments
Description: The following MDT compounds were tested: MDT-1, MDT-3, MDT-10, MDT-11, MDT-12, MDT-13, MDT-14, MDT-15, MDT-16, MDT-22, MDT-23, MDT-24, MDT-26, MDT-27, MDT-28, MDT-29, MDT-30, MDT-31, MDT-32, MDT-33, MDT-34, MDT-40, MDT-41, MDT-42, MDT-43, MDT-44, MDT-45, MDT-46, MDT-47, MDT-48, MDT-49, MDT-50, MDT-51, MDT-53, MDT-56, MDT-57, MDT-58, MDT-59, MDT-60, MDT-61, MDT-62, MDT-63, MDT-65, MDT-67, MDT-68 and MDT-69. […] Amantadine and rimantadine are both adamantane derivatives.
Compound diluents were dimethyl sulfoxide (DMSO), Molecusol ((2-hydroxypropyl)-β-cyclodextrin; Sigma H107), propylene-glycol (PG) and deionized water. Diluents were used singly or in combination as necessary to dissolve the compounds.
The medium used for the cell lines was 1× Minimal Essential Medium (MEM) (Invitrogen) supplemented with 1% L-glutamine, 1% penicillin-streptomycin, 0.125% bovine serum albumin (BSA), and 1 μg/ml of TPCK-trypsin.
The viruses tested were influenza A/PR/8/34 (H1N1), influenza A/WS/33 (H1N1), influenza A/HK/8/68 (H3N2) and influenza B/GL/1739/54 (no H, N subtyping). Cells used were the Vero line of African green monkey, normal kidney cells. All viruses and cells were obtained from The American Type Culture Collection (Rockville, Md.). Cells were grown in an atmosphere of 4-6% CO2 at 34-38° C. in MEM with 5% fetal bovine serum (FBS), 2 mM glutamine, and 1% penicillin-streptomycin solution to maintain exponential growth.
The Vero cells were plated on Day 0. On Day 1, cells were infected with virus and incubated with various concentrations of test compounds. […] On Day 4 the cells were fixed and stained. […] Cell survival due to exposure to test compound was indicative of anti-viral activity.

[4] = Table 3, Vero cells, H1N1, n at least 2, No effic. = no efficacy measured
[5] = Table 3, Vero cells, H3N2, n at least 2, No effic. = no efficacy measured, read-out: EC50 Virus A/HK/8/68
[6] = Table 3, MDT compounds, No Tox. = no cytotoxicity measured
[7] = Influenza A virus, Table 3, Vero cells, H1N1, n at least 2, No effic. = no efficacy measured
[8] = Table 3, Vero cells, H3N2, n at least 2, No effic. = no efficacy measured
[9] = Table 3, Vero cells, H1N1, n at least 2, No effic. = no efficacy measured, read-out: EC50 Virus A/PR/8/34
[10] = Table 3, Vero cells, H1N1, n at least 2, No effic. = no efficacy measured, read-out: EC50 Virus A/WS/33
[11] = Influenza A virus, Vero, Table 4, controls, cutoff control values compiled through many experiments
[12] = Influenza A virus, H1N1, Vero, Table 4, controls, cutoff control values compiled through many experiments
[13] = Influenza A virus, H3N2, Vero, Table 4, controls, cutoff control values compiled through many experiments

Molecule: NCC12CC3CC4C5CC(CC41)CC2C5C3 [MDT-56, 1-diamantanemethylamine]
- anti-viral activity under the conditions tested [1]: did not exhibit anti-viral activity

Molecule: NCC12CC3C4CC5CC3C(C1)C(C5)C4C2 [MDT-61, 4-diamantanemethylamine]
- EC50 Virus A/PR/8/34 [2, 4]: No Effic.
- EC50 Virus A/WS/33 (influenza A/WS/33 (H1N1); [4]): No Effic.
- EC50 [3, 5]: 100 nM
- EC50 Virus B/GL/1739/54 (influenza B/GL/1739/54): No Effic.
- Cytotoxicity (Vero cells; [6]): 50 or above μM

Molecule: OC12CC3C4CC5C6CC7CC5C(C4C1)C(C7)(C2)C63 [MDT-42, 9-hydroxytriamantane]
- EC50 [2, 7]: 80 nM
- EC50 (influenza A/WS/33 (H1N1); [7]): 2500 nM
- EC50 Virus A/HK/8/68 [3, 8]: No Effic.
- EC50 Virus B/GL/1739/54 (influenza B/GL/1739/54): No Effic.
- Cytotoxicity (Vero cells; [6]): No Tox.

Molecule: CC12CC3CC4C1CC1(N)CC2C(C3)C4(N)C1 [MDT-29, 1-methyl-4,6-diaminodiamantane]
- anti-viral activity under the conditions tested [1]: did not exhibit anti-viral activity

Molecule: CC12CC3C4CC5(C)CC(C(C1)C3(N)C5)C4(N)C2 [MDT-53, 4,9-dimethyl-1,6-diaminodiamantane]
- anti-viral activity under the conditions tested [1]: did not exhibit anti-viral activity

Molecule: CC12CC3C4CC5CC3C(C1)C(C5)C4C2 [MDT-60, 4-methyldiamantane]
- anti-viral activity under the conditions tested [1]: did not exhibit anti-viral activity

Molecule: NC12CC3C4CC5CC3C(C1)C(C5)C4C2 [MDT-3, 4-aminodiamantane]
- EC50 Virus A/PR/8/34 [2, 4]: No Effic.
- EC50 Virus A/WS/33 (influenza A/WS/33 (H1N1); [4]): No Effic.
- EC50 [3, 5]: < 125 nM
- EC50 Virus B/GL/1739/54 (influenza B/GL/1739/54): No Effic.
- Cytotoxicity (Vero cells; [6]): 10 or above μM

Molecule: CC12CC3CC4C1CC1(O)CC2C(C3)C4(C)C1 [MDT-45, 1,6-dimethyl-4-hydroxydiamantane]
- EC50 [2, 9]: 20 nM
- EC50 (influenza A/WS/33 (H1N1); [10]): 300 nM
- EC50 Virus A/HK/8/68 [3, 8]: No Effic.
- EC50 Virus B/GL/1739/54 (influenza B/GL/1739/54): No Effic.
- Cytotoxicity (Vero cells; [6]): No Tox.

Molecule: CC12CC3CC4C1CC1(CN)CC2C(C3)C4(C)C1 [MDT-65, 1,6-dimethyl-4-diamantanemethyleneamine]
- anti-viral activity under the conditions tested [1]: did not exhibit anti-viral activity

Molecule: O=NC12CC3C4CC5CC3C(C1)C(C5)C4C2 [MDT-27, 4-nitrosodiamantane]
- EC50 [2, 9]: 20 nM
- EC50 (influenza A/WS/33 (H1N1); [10]): 360 nM
- EC50 Virus A/HK/8/68 [3, 8]: No Effic.
- EC50 Virus B/GL/1739/54 (influenza B/GL/1739/54): No Effic.
- Cytotoxicity (Vero cells; [6]): No Tox.

Molecule: CC(N)C12CC3(C)CC4C5CC(C)(CC41)CC2C5C3 (centres unmarked) [MDT-67, 4,9-dimethyl-1-diamantane-1′-methyl-methyleneamine]
- anti-viral activity under the conditions tested [1]: did not exhibit anti-viral activity

Molecule: O=C1C2CC3C4CC5CC3C1C(C5)C4C2 [MDT-59, 3-diamantanone]
- anti-viral activity under the conditions tested [1]: did not exhibit anti-viral activity

Molecule: 9-aminotriamantane [MDT-49]
- anti-viral activity under the conditions tested [1]: did not exhibit anti-viral activity

Molecule: CC(N)C12CC3CC4C5CC(CC41)CC2C5C3 (centres unmarked) [MDT-57, 1-(1-aminoethyl)diamantane]
- EC50 Virus A/PR/8/34 [2, 4]: No Effic.
- EC50 Virus A/WS/33 (influenza A/WS/33 (H1N1); [4]): No Effic.
- EC50 [3, 5]: 160 nM
- EC50 Virus B/GL/1739/54 (influenza B/GL/1739/54): No Effic.
- Cytotoxicity (Vero cells; [6]): 50 or above μM

Molecule: CC12CC3CC4C1CC1(C(=O)O)CC2C(C3)C4(C)C1 [MDT-46, 1,6-dimethyl-4-diamantanecarboxylic acid]
- EC50 [2, 9]: < 125 nM
- EC50 (influenza A/WS/33 (H1N1); [10]): < 125 nM
- EC50 Virus A/HK/8/68 [3, 8]: No Effic.
- EC50 Virus B/GL/1739/54 (influenza B/GL/1739/54): No Effic.
- Cytotoxicity (Vero cells; [6]): No Tox.

Molecule: OC12C3CC4CC5C3CC3C6CC(CC31)CC2(C4)C56 [MDT-40, 2-hydroxytriamantane]
- EC50 [2, 9]: 1900 nM
- EC50 (influenza A/WS/33 (H1N1); [10]): 24900 nM
- EC50 Virus A/HK/8/68 [3, 8]: No Effic.
- EC50 Virus B/GL/1739/54 (influenza B/GL/1739/54): No Effic.
- Cytotoxicity (Vero cells; [6]): No Tox.

Molecule: CCOC(=O)C1=C[C@@H](OC(CC)CC)[C@H](NC(C)=O)[C@@H](N)C1 [Oseltamivir, reference compound]
- EC50 [2, 11]: ≥ 10000 nM
- EC50 (influenza A/WS/33 (H1N1); [12]): ≥ 5000 nM
- EC50 [3, 13]: ≤ 1000 nM
- EC50 (influenza B/GL/1739/54): ≥ 15 µM
- Cytotoxicity (Vero cells; Table 4, controls, No Tox = no cytotoxicity measured): No Tox.

Molecule: OC12CC3CC4C1CC1CC4C(O)(C3)C2C1 [MDT-13, 1,7-dihydroxydiamantane]
- anti-viral activity under the conditions tested [1]: did not exhibit anti-viral activity

Molecule: OC12CC3CC4C1CC1C5CC6CC1C2C(C6)(C3)C54 (centres unmarked) [MDT-41, 3-hydroxytriamantane]
- EC50 [2, 7]: 610 nM
- EC50 (influenza A/WS/33 (H1N1); [7]): 5500 nM
- EC50 Virus A/HK/8/68 [3, 8]: No Effic.
- EC50 Virus B/GL/1739/54 (influenza B/GL/1739/54): No Effic.
- Cytotoxicity (Vero cells; [6]): No Tox.

Molecule: OC12CC3CC4C1CC1CC2C(C3)C4(O)C1 [MDT-12, 1,6-dihydroxydiamantane]
- anti-viral activity under the conditions tested [1]: did not exhibit anti-viral activity

Molecule: CC12CC3CC4C1CC1CC2C(O)(C3)C4(C)C1 (centres unmarked) [MDT-44, 1,6-dimethyl-2-hydroxydiamantane]
- EC50 [2, 9]: 50 nM
- EC50 (influenza A/WS/33 (H1N1); [10]): 610 nM
- EC50 Virus A/HK/8/68 [3, 8]: No Effic.
- EC50 Virus B/GL/1739/54 (influenza B/GL/1739/54): No Effic.
- Cytotoxicity (Vero cells; [6]): No Tox.

Molecule: CC12CC3CC4C5CC(CC41)CC2(N)C5C3 (centres unmarked) [MDT-30, 1-amino-12-methyldiamantane]
- anti-viral activity under the conditions tested [1]: did not exhibit anti-viral activity

Molecule: CC12CC3CC4C1CC1(N)CC2C(C3)C4(C)C1 [MDT-23, 1,6-dimethyl-4-aminodiamantane]
- anti-viral activity under the conditions tested [1]: did not exhibit anti-viral activity

Molecule: OC12CC3CC4C5CC(CC41)CC2C5C3 [MDT-10, 1-hydroxydiamantane]
- anti-viral activity under the conditions tested [1]: did not exhibit anti-viral activity

Molecule: OC12CC3C4CC5(O)CC3C(C1)C(C5)C4C2 [MDT-14, 4,9-dihydroxydiamantane]
- anti-viral activity under the conditions tested [1]: did not exhibit anti-viral activity

Molecule: CC12CC3(N)CC4C5CC(CC41)CC2C5C3 [MDT-22, 2-methyl-4-aminodiamantane]
- anti-viral activity under the conditions tested [1]: did not exhibit anti-viral activity

Molecule: 3-aminotriamantane [MDT-48]
- anti-viral activity under the conditions tested [1]: did not exhibit anti-viral activity

Molecule: OC12CC3C4CC5CC3C(C1)C(C5)C4C2 [MDT-11, 4-hydroxydiamantane]
- anti-viral activity under the conditions tested [1]: did not exhibit anti-viral activity

Molecule: CC(N)C12CC3C4CC5CC(C(C1)C3(C)C5)C4(C)C2 (centres unmarked) [MDT-68, 1,6-dimethyl-4-diamantane-4′-methyl-methyleneamine]
- anti-viral activity under the conditions tested [1]: did not exhibit anti-viral activity

Molecule: CC12CC3CC4C1CC1(N)CC2C(C3)C4(C)C1 [MDT-33, 1,6-dimethyl-4-aminodiamantane]
- anti-viral activity under the conditions tested [1]: did not exhibit anti-viral activity

Molecule: NC12CC3CC(CC(C3)C1)C2 [Amantadine, 1-aminoadamantane hydrochloride, reference compound]
- EC50 [2, 11]: ≥ 50000 nM
- EC50 (influenza A/WS/33 (H1N1); [12]): ≥ 10000 nM
- EC50 [3, 13]: ≤ 1000 nM
- EC50 (influenza B/GL/1739/54): ≥ 20 µM

Molecule: NC12CC3CC4C5CC(CC41)CC2C5C3 [MDT-1, 1-aminodiamantane]
- anti-viral activity under the conditions tested [1]: did not exhibit anti-viral activity

Molecule: CC12CC3(N)CC4C5CC(N)(CC41)CC2C5C3 [MDT-28, 1-methyl-4,9-diaminodiamantane]
- anti-viral activity under the conditions tested [1]: did not exhibit anti-viral activity

Molecule: CC12CC3C4CC5(C)CC3C(C1)C(N)(C5)C4C2 [MDT-51, 4,9-dimethyl-1-aminodiamantane]
- anti-viral activity under the conditions tested [1]: did not exhibit anti-viral activity

Molecule: CC12CC3C4CC5(C)CC3C(C1)C(CN)(C5)C4C2 [MDT-63, 4,9-dimethyl-1-diamantanemethyleneamine]
- anti-viral activity under the conditions tested [1]: did not exhibit anti-viral activity

Molecule: OC12CC3C4CC5C6CC7(O)CC5C(C4C1)C(C2)(C7)C36 [MDT-15, 9,15-dihydroxytriamantane]
- anti-viral activity under the conditions tested [1]: did not exhibit anti-viral activity
